The record followed here is ChEMBL document CHEMBL3085697, “Design and synthesis of aryl sulfonamide-based nonsteroidal mineralocorticoid receptor antagonists” (Bioorg Med Chem Lett, 2013).

Data set [1] can be described thus: Apparent intrinsic clearance in human liver microsomes. The format is ADME. As to conditions: read-out: CLH(app). In general terms: Liver microsomes are vesicles of endoplasmic reticulum, rich in cytochrome P450 enzymes.
Data set [2] addresses T1, Mineralocorticoid receptor (Homo sapiens, UniProt P08235).
T1 sequence (P08235 whole entry): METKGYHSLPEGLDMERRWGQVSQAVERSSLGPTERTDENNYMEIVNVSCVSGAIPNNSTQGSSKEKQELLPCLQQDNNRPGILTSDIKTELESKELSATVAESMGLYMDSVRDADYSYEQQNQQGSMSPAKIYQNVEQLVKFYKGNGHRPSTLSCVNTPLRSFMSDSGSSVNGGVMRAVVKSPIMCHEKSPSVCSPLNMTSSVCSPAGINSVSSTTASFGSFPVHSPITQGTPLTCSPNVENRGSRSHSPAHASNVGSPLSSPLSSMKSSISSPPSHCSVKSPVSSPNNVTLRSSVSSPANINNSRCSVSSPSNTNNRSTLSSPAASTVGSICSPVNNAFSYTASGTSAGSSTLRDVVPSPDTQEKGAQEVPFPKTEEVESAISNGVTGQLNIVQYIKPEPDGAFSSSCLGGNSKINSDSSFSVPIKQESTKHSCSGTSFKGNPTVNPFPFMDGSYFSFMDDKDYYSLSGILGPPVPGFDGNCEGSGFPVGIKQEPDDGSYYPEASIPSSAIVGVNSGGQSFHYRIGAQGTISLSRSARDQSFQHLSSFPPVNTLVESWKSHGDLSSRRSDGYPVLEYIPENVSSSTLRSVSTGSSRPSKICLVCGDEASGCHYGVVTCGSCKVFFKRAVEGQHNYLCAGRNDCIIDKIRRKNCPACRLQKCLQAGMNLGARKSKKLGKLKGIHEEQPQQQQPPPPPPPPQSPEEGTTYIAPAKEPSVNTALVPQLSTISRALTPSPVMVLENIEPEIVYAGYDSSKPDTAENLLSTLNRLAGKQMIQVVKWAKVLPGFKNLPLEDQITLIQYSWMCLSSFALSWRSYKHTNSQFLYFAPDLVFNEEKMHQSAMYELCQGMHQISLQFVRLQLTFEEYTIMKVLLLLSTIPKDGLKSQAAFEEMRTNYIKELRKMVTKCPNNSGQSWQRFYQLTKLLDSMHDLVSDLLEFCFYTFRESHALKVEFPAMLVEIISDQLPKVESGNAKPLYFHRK
Nature of the data set: Antagonist activity at human mineralocorticoid receptor ligand binding domain expressed in human Huh7 cells after 16 hrs by luciferase reporter gene assay in presence of serum. The format is cell-based, Huh-7.

A further data set concerns the target T2, Androgen receptor (Homo sapiens, UniProt P10275).
T2 sequence (P10275 whole entry): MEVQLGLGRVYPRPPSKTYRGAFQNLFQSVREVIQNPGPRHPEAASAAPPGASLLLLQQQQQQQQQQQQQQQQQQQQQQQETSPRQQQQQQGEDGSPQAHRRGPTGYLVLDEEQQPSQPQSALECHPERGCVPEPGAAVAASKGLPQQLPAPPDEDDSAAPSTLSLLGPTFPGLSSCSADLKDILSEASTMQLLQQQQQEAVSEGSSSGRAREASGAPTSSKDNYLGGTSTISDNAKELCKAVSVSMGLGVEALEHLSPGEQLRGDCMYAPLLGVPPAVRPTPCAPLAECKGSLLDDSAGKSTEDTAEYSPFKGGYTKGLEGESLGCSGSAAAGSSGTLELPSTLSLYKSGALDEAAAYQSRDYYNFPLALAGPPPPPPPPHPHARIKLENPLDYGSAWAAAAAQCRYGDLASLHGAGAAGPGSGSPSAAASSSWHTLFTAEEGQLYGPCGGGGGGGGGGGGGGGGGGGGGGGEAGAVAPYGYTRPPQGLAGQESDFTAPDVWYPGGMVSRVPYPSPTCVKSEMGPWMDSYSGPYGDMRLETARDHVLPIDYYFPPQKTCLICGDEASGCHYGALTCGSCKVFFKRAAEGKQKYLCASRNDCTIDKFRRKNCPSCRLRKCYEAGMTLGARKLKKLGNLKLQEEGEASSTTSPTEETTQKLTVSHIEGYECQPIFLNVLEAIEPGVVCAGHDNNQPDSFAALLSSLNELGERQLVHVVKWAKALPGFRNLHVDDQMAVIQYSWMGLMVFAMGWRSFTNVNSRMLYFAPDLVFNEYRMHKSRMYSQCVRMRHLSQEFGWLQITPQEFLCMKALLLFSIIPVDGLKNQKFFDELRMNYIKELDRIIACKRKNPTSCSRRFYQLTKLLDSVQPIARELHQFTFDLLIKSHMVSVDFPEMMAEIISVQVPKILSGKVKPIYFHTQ
The data set can be described thus: Antagonist activity at human androgen receptor ligand binding domain expressed in human Huh7 cells after 16 hrs by luciferase reporter gene assay. The format is cell-based, Huh-7. (In general: A reporter such as luciferase makes a cellular process visible.)

A further data set addresses CYP3A4 (Homo sapiens, UniProt P08684). Nature of the data set: Inhibition of CYP3A4 (unknown origin) at 3 uM. The format is ADME.
Data set [3] can be described thus: Apparent permeability across dog RRCK cells. The format is ADME, cell-based, Canis lupus familiaris, MDCKII-LE. Particulars: MDCK.
The target in another data set is T3, CYP1A2 (Homo sapiens, UniProt P05177).
T3 sequence (P05177 whole entry): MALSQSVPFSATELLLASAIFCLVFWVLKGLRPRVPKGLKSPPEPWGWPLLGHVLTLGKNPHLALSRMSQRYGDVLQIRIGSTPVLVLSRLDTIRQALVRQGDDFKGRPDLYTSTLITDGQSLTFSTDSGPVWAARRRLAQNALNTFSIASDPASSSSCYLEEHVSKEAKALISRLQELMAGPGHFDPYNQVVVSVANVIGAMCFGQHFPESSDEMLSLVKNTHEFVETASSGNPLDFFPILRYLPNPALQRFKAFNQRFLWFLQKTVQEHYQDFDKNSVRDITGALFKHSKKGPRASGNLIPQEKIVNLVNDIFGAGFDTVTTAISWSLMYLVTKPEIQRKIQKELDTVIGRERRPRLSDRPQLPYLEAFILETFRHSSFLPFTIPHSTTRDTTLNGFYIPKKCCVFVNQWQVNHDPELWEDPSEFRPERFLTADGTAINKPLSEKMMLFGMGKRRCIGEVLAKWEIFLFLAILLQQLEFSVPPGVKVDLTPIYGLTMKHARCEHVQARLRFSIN
Nature of the data set: Inhibition of CYP1A2 (unknown origin) at 3 uM. The format is ADME.

CYP3A4, sequence (P08684 whole entry): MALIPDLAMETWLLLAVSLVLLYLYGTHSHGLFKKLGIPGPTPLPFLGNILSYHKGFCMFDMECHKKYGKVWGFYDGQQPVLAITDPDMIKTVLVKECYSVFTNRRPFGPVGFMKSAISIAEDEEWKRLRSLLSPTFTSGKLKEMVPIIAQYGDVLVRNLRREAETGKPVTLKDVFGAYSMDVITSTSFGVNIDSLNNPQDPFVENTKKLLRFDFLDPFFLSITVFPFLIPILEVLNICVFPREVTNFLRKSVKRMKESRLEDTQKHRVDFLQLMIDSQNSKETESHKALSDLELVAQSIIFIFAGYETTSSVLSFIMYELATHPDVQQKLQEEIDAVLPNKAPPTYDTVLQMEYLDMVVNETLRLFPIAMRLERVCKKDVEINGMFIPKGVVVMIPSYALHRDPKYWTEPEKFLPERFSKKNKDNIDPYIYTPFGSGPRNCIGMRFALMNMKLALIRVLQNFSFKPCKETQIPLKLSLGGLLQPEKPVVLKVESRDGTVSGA

As a reminder, the IC50 is the midpoint of a concentration-inhibition curve. Broadly, the inhibition is the change of the read-out against control, counted positive when it falls. A word on the Papp: it is the rate of passage across a membrane or cell layer, normalised by area and donor concentration. On to `Cc1cn(-c2ccc(CNS(=O)(=O)c3cc(F)ccc3F)cc2)c(C)n1`, for which the microsomal CLint in data set [1] came to 27 µL/min/mg. Further, the IC50 in data set [2] was 1.31 µM; at Androgen receptor, > 10 µM. Besides, the inhibition at 3 µM against CYP3A4 and against CYP1A2 was < 5% throughout. The apparent permeability (Papp) in data set [3] is 15.4 ×10⁻⁶ cm/s.
